Source: US20090298843A1, “TREATMENT OF HEMATOLOGICAL MALIGNANCIES WITH FTS AND A BCR-ABL TYROSINE KINASE INHIBITOR” (RAMOT AT TEL AVIV UNIVERSITY LTD., priority 2006, published 2009)
One block for each compound: values may come before it.

What was measured:
K562 cells (Human, CML) [1] = experiment: FACS analysis of propidium iodide stained cells (cell cycle distribution, sub-G1); assay type: cell-based; conditions: for cells in sub-G1: 48 h
Description: Third, a FACS analysis was performed. Cells were plated at a density of 50,000 cells per ml in 10 cm plates for fluorescence-activated cell-sorting (FACS) analysis of propidium iodide stained cells. […] Forty-eight hours (48 h) later, propidium iodide mixed with 1% Triton X-100 was added to the cells, and the cell cycle distribution of the cells was assessed using a FACS machine.
[Gambacorti-Passerini, C., le Coutre, P., Mologni, L., Fanelli, M., Bertazzoli, C., Marchesi, E., Di Nicola, M., Biondi, A., Corneo, G. M., Belotti, D., Pogliani, E., Lydon, N. B., Blood Cells Mol Dis. 23(3):380-94 (1997)].

[2] = test system: 697 cells (Human T-cell leukemia, ALL); experiment: Cell growth inhibition assay, FTS alone (direct cell count); assay type: cell-based; conditions: for cell number in FTS-treated cells as a percentage of controls (avg): counted 48 h after addition
Text: (§1) The following cell lines were examined, representing Acute Myeloid Leukemia (AML), Acute Lymphoblastic Leukemia (ALL), and Chronic Myeloid Leukemia (CML): 1. CEM (Human T-cell leukemia, ALL) 2. HSB-2 (Human T-cell leukemia, ALL) carrying the t(1; 7) (p34; q34) involving the lck and tcrb genes and a submicroscopic del(1)(p32) leading to the Sil-Scl fusion gene 3. 697 (Human T-cell leukemia, ALL) 4. Raji (Human Burkitt's lymphoma) with overexpression and mutation in the c-Myc gene 5. U-937 (Human histiocytic lymphoma, AML) 6. HL-60 (AML) 7. K562 (Himan, CML) with a b3-a2 fusion gene to create the Bcr-Abl chimeric oncoprotein.
(§2) Cells were grown at 37° C. in RPMI containing 5% FCS, 100 μg/mL streptomycin, and 100 units/mL penicillin and maintained in a humidified atmosphere of 95% air/5% CO2. […] Each experiment tin quadruplicate) was performed at least two times.

[3] = test system: CEM cells (Human T-cell leukemia, ALL); experiment: as above; assay type: cell-based; conditions: for cell number in FTS-treated cells as a percentage of controls (avg): CEM, counted 48 h after addition
Text: as §1, §2

[4] = test system: HSB-2 cells (Human T-cell leukemia, ALL); experiment: as above; assay type: cell-based; conditions: for cell number in FTS-treated cells as a percentage of controls (avg): HSB, counted 48 h after addition
Text: as §1, §2

K562 cells (Human, CML) [5] = experiment: as above; assay type: cell-based; conditions: for cell number in FTS-treated cells as a percentage of controls (avg): counted 48 h after addition
Text: as §1, §2

[6] = test system: Raji cells (Human Burkitt's lymphoma); experiment: as above; assay type: cell-based; conditions: for cell number in FTS-treated cells as a percentage of controls (avg): counted 48 h after addition
Text: as §1, §2

[7] = test system: U-937 cells (Human histiocytic lymphoma, AML); experiment: as above; assay type: cell-based; conditions: U937; for cell number in FTS-treated cells as a percentage of controls (avg): counted 48 h after addition
Text: as §1, §2

HL-60 cells (AML) = experiment: as above; assay type: cell-based, Human; conditions: for cell number in FTS-treated cells as a percentage of controls (avg): counted 48 h after addition
Text: as §1, §2

[8] = Phase-I open-label study of FTS in human patients with advanced hematologic malignancies; assay type: in vivo; conditions: for ANC, baseline level / HGB, baseline level / PLT, baseline level: before treatment
Description: One human patient with advanced myelodysplastic syndrome (MDS) refractory to chemotherapy was treated with FTS, at a dose of 200 b.i.d. (400 mg daily), administered on days 1 to 21 of a 28 day cycle. […] The results are graphically depicted in FIG. 7 and in Table 3 (below). Five human patients with advanced myelodysplastic syndrome (MDS), acute myelogenous leukemia (AML), or chronic myelogenous leukemia (CML) refractory to chemotherapy were treated with FTS at doses of 200 to 600 mg b.i.d. (400 to 1200 mg daily) administered on days 1 to 21 of a 28 day cycle. […]

[9] = test system: seven leukemia cell lines (CEM, HSB-2, 697, Raji, U-937, HL-60, K562); experiment: Cell growth inhibition assay, FTS alone, summary over the seven cell lines; assay type: cell-based, Human
Text: as §1, §2

[10] = Homo sapiens, read-out: IC50 for FTS inhibition of leukemia cell growth
[11] = person one, AML, FTS 400 mg b.i.d.
[12] = person two, AML, FTS 400 mg b.i.d.
[13] = person, MDS, FTS 200 b.i.d., days 1 to 21 of a 28 day cycle

SMILES: Cc1ccc(NC(=O)c2ccc(CN3CCN(C)CC3)cc2)cc1Nc1nccc(-c2cccnc2)n1 [GLEEVEC, reference compound]
cells in sub-G1 (K562 cells (Human, CML) [1]; GLEEVEC only, 200 nM): 13%

IC50 ([2]; Homo sapiens, T-cell): 25 µM
IC50 ([3]; Homo sapiens, CCRF-CEM): 50 µM
IC50 ([4]; Homo sapiens, HSB2): 25 µM
IC50 (K562 cells (Human, CML) [5]; [10]): 50 µM
IC50 [6, 10]: 20 µM
IC50 ([7]; Homo sapiens, U-937, read-out: IC50 for FTS inhibition of leukemia cell growth): 70 µM
IC50 (HL-60 cells (AML); [10]): 60 µM
IC50 ([9]; Homo sapiens, seven leukemia cell lines, read-out: half maximal inhibitory concentration (IC50) values, range over the cell lines): 20 to 70 µM
SMILES: CC(C)=CCC/C(C)=C/CC/C(C)=C/CSc1ccccc1C(=O)O [FTS, farnesylthiosalicylic acid]
cell number in FTS-treated cells as a percentage of controls (avg) ([2]; FTS 12.5 uM): 27%
cell number in FTS-treated cells as a percentage of controls (avg) ([2]; FTS 25 uM): 44%
cell number in FTS-treated cells as a percentage of controls (avg) ([2]; FTS 50 uM): 34%
cell number in FTS-treated cells as a percentage of controls (avg) ([2]; FTS 75 uM): 4%
cell number in FTS-treated cells as a percentage of controls (avg) ([2]; FTS 100 uM): 2%
cell number in FTS-treated cells as a percentage of controls (avg) ([3]; FTS 12.5 uM): 89%
cell number in FTS-treated cells as a percentage of controls (avg) ([3]; FTS 25 uM): 78%
cell number in FTS-treated cells as a percentage of controls (avg) ([3]; FTS 50 uM): 71%
cell number in FTS-treated cells as a percentage of controls (avg) ([3]; FTS 75 uM): 32%
cell number in FTS-treated cells as a percentage of controls (avg) ([3]; FTS 100 uM): 12%
cell number in FTS-treated cells as a percentage of controls (avg) ([4]; FTS 12.5 uM): 88%
cell number in FTS-treated cells as a percentage of controls (avg) ([4]; FTS 25 uM): 53%
cell number in FTS-treated cells as a percentage of controls (avg) ([4]; FTS 50 uM): 38%
cell number in FTS-treated cells as a percentage of controls (avg) ([4]; FTS 75 uM): 22%
cell number in FTS-treated cells as a percentage of controls (avg) ([4]; FTS 100 uM): 4%
cell number in FTS-treated cells as a percentage of controls (avg) (K562 cells (Human, CML) [5]; FTS 6.25 uM): 100%
cell number in FTS-treated cells as a percentage of controls (avg) (K562 cells (Human, CML) [5]; FTS 12.5 uM): 115%
cell number in FTS-treated cells as a percentage of controls (avg) (K562 cells (Human, CML) [5]; FTS 25 uM): 107%
cell number in FTS-treated cells as a percentage of controls (avg) (K562 cells (Human, CML) [5]; FTS 50 uM): 37%
cell number in FTS-treated cells as a percentage of controls (avg) (K562 cells (Human, CML) [5]; FTS 75 uM): 14%
cell number in FTS-treated cells as a percentage of controls (avg) (K562 cells (Human, CML) [5]; FTS 100 uM): 1%
cell number in FTS-treated cells as a percentage of controls (avg) ([6]; FTS 6.25 uM): 63%
cell number in FTS-treated cells as a percentage of controls (avg) ([6]; FTS 12.5 uM): 61%
cell number in FTS-treated cells as a percentage of controls (avg) ([6]; FTS 25 uM): 33%
cell number in FTS-treated cells as a percentage of controls (avg) ([6]; FTS 50 uM): 24%
cell number in FTS-treated cells as a percentage of controls (avg) ([6]; FTS 75 uM): 11%
cell number in FTS-treated cells as a percentage of controls (avg) ([6]; FTS 100 uM): 5%
cell number in FTS-treated cells as a percentage of controls (avg) ([7]; FTS 12.5 uM): 104%
cell number in FTS-treated cells as a percentage of controls (avg) ([7]; FTS 25 uM): 82%
cell number in FTS-treated cells as a percentage of controls (avg) ([7]; FTS 50 uM): 82%
cell number in FTS-treated cells as a percentage of controls (avg) ([7]; FTS 75 uM): 32%
cell number in FTS-treated cells as a percentage of controls (avg) ([7]; FTS 100 uM): 9%
cell number in FTS-treated cells as a percentage of controls (avg) (HL-60 cells (AML); FTS 6.25 uM): 76%
cell number in FTS-treated cells as a percentage of controls (avg) (HL-60 cells (AML); FTS 12.5 uM): 69%
cell number in FTS-treated cells as a percentage of controls (avg) (HL-60 cells (AML); FTS 25 uM): 82%
cell number in FTS-treated cells as a percentage of controls (avg) (HL-60 cells (AML); FTS 50 uM): 67%
cell number in FTS-treated cells as a percentage of controls (avg) (HL-60 cells (AML); FTS 75 uM): 31%
sensitization of K562 cells to GLEEVEC (K562 cells (Human, CML) [1]; FTS 70 μM with GLEEVEC 200 nM): chemosensitized the K562 cells to GLEEVEC
cells in sub-G1 (K562 cells (Human, CML) [1]; FTS only, 70 μM): 8%
lineage response (PLT, HGB or ANC) over the course of treatment ([8]; five patients, advanced MDS, AML or CML refractory to chemotherapy, 200 to 600 mg b.i.d., days 1 to 21 of a 28 day cycle): improvement in one lineage
lineage response (PLT, HGB, ANC) over the course of treatment ([8]; one patient, advanced MDS refractory to chemotherapy, 200 b.i.d. (400 mg daily), days 1 to 21 of a 28 day cycle): improvement in three lineages
ANC, best level observed [8, 11]: 4.503e+09 L⁻¹
ANC, baseline level [8, 11]: 0.285 to × 10^9/L
ANC, best level observed [8, 12]: 9.54e+08 L⁻¹
ANC, baseline level [8, 12]: 0.144 to × 10^9/L
HGB, best level observed ([8]; person, CML, FTS 600 mg b.i.d.): 11.4 g/dL
HGB, baseline level ([8]; person, CML, FTS 600 mg b.i.d.): 9.3 to g/dL
PLT, best level observed ([8]; person, MDS, FTS 200 mg b.i.d.): 5.4e+10 L⁻¹
PLT, baseline level ([8]; person, MDS, FTS 200 mg b.i.d.): 21 to × 10^9/L
HGB, best level observed ([8]; person, MDS, FTS 400 mg b.i.d.): 10.4 g/dL
HGB, baseline level ([8]; person, MDS, FTS 400 mg b.i.d.): 9.7 to g/dL
ANC, best level observed [8, 13]: 9.7e+08 L⁻¹
HGB, best level observed [8, 13]: 12.7 g/dL
PLT, best level observed [8, 13]: 1.05e+11 L⁻¹
ANC, baseline level [8, 13]: 0.40 to × 10^9/L
HGB, baseline level [8, 13]: 10.4 to g/dL
PLT, baseline level [8, 13]: 53 to × 10^9/L
growth inhibition, result in words ([9]; seven cell lines): inhibited growth of each of seven cell lines
